Measured values: patent US8475804B2 (priority 2009, dated 2013)
Counter-ions that a name gives are not always drawn. Like-named read-outs stand apart in the source and are kept apart here.

Test system: Ebola virus
Experiment: microbe, parasite or virus in culture
Type: cell-based, Ebolavirus (EBOV)
Conditions: for Emax: read-out: Max Effect

Row | Compound | Emax (Zaire ebolavirus, Vero) [%] | IC50 (Zaire ebolavirus, Vero) [µM] | Max Effect | IC50 (read-out: IC50) [µM] | further results
1 | O=C(OC[C@H]1O[C@@H](OC(=O)c2cc(O)c(O)c(OC(=O)c3cc(O)c(O)c(O)c3)c2)[C@H](OC(=O)c2cc(O)c(O)c(OC(=O)c3cc(O)c(O)c(O)c3)c2)[C@@H](OC(=O)c2cc(O)c(O)c(OC(=O)c3cc(O)c(O)c(O)c3)c2)[C@@H]1OC(=O)c1cc(O)c(O)c(OC(=O)c2cc(O)c(O)c(O)c2)c1)c1cc(O)c(O)c(OC(=O)c2cc(O)c(O)c(O)c2)c1 [Tannic Acid] | 54.3 | – | – | – | –
2 | CC(C)(C)c1ccc(C(O)CCCN2CCC(C(O)(c3ccccc3)c3ccccc3)CC2)cc1 (centres unmarked) [Terfenadine] | 91.4 | 6.1 | – | – | –
3 | C/C=C(/C)C(=O)O[C@H]1C(C)=C2[C@H]([C@@H]1OC(=O)CCCCCCC)[C@@](C)(OC(C)=O)C[C@H](OC(=O)CCC)[C@@]1(O)[C@H]2OC(=O)[C@@]1(C)O [Thapsigargin] | 70 | < 0.3 | – | – | –
4 | CCSc1ccc2c(c1)N(CCCN1CCN(C)CC1)c1ccccc1S2 [Thiethylperazine Maleate] | 83.2 | 4.4 | – | – | –
5 | CSc1ccc2c(c1)N(CCC1CCCCN1C)c1ccccc1S2.Cl (centres unmarked) [Thioridazine Hydrochloride] | – | – | 0.915 | 4.3 | Max Effect Vero: 0.954; IC50 (read-out: IC50 (μM) Vero): 6.2 µM
6 | C=C(NC(=O)C(=C)NC(=O)c1csc(C2=N[C@@H]3c4csc(n4)[C@H]4NC(=O)c5csc(n5)[C@H]([C@](C)(O)[C@@H](C)O)NC(=O)[C@H]5CSC(=N5)/C(=C/C)NC(=O)[C@H]([C@@H](C)O)NC(=O)c5csc(n5)[C@]3(CC2)NC(=O)[C@H](C)NC(=O)C(=C)NC(=O)[C@H](C)NC(=O)[C@H]([C@@H](C)CC)N[C@@H]2C=Cc3c([C@H](C)O)cc(nc3[C@H]2O)C(=O)O[C@@H]4C)n1)C(N)=O [Thiostrepton] | 45.4 | – | – | – | –
7 | C#C[C@]1(O)CC[C@H]2[C@@H]3[C@H](C)CC4=C(CCC(=O)C4)[C@H]3CC[C@@]21C [Tibolone] | 112 | 1.2 | – | – | –
8 | Clc1ccc(C(Cn2ccnc2)OCc2ccsc2Cl)c(Cl)c1 (centres unmarked) [Tioconazole] | 72.9 | 8.5 | – | – | –
9 | O=C(O)Cc1cc(I)c(Oc2ccc(O)c(I)c2)c(I)c1 [Tiratricol] | 47.8 | – | – | – | –
10 | CN(C)CCOc1ccc(/C(=C(/CCCl)c2ccccc2)c2ccccc2)cc1 [Toremifene] | – | – | 0.461 | – | IC50: 2.7 µM
11 | CSc1nc2cc(Cl)c(Oc3cccc(Cl)c3Cl)cc2[nH]1 [Triclabendazole] | 55.2 | 9.2 | – | – | –
12 | CN1CCN(CCCN2c3ccccc3Sc3ccc(C(F)(F)F)cc32)CC1 [Trifluoperazine Hydrochloride] | 95.5 | 5 | – | – | –
13 | CN(C)CCCN1c2ccccc2Sc2ccc(C(F)(F)F)cc21 [Triflupromazine Hydrochloride] | 54.1 | 12.1 | – | – | –
14 | CC(C)[C@]12O[C@H]1[C@@H]1O[C@]13[C@]1(O[C@H]1C[C@H]1C4=C(CC[C@@]13C)C(=O)OC4)[C@@H]2O [Triptolide] | 85 | < 0.1 | – | – | –
15 | Fc1ccc(C(OCCN2CCN(CCCc3ccccc3)CC2)c2ccc(F)cc2)cc1 [Vanoxerine] | 56.4 | 5.8 | – | – | –
16 | Acetophenazine Maleate | – | – | 0.478 | – | –
17 | Antimycin A | – | – | 0.850 | < 0.04 | –
18 | Beta Escin | – | – | 0.878 | – | –
19 | Bromelain | – | – | 0.769 | 4 | –
20 | Cetrimide | – | – | 0.692 | 5.6 | –
21 | Chondroitin Sulfate | – | – | 0.535 | 11.4 | –
22 | Gramicidin | – | – | 0.678 | – | –
23 | Guanethidine Monosulfate | – | – | 0.793 | 8.7 | –
24 | Nonoxynol-9 | – | – | 0.535 | 8.7 | –
25 | Sodium Vanadate | – | – | – | 13 | –
26 | Tunicamycin | – | – | 0.800 | < 0.28 | –
